Experimental data taken from US20080103086A1, “METHODS FOR THE TREATMENT OF DISEASES ASSOCIATED WITH THE SECRETION OF HMGB1” (priority 2006, published 2008).

Experiments:
HMGB1-GFP = HMGB1-GFP imaging in transfected RAW 264.7 cells; assay type: cell-based, Murine; conditions: OA 100 nM 4 h, TSA 10 ng/mL 2 h, TNF-α 20 ng/mL 16 h
Protocol: RAW 264.7 cells (A) and human PBMo cells (B) were treated with OA (100 nM for 8 h), and immunofluorescent staining was performed to observe the HMGB1. TNF-α (20 ng/mL for 16 h) was used as a positive control cytokine. […] (C) Western blot analysis of HMGB1 protein in the culture supernatants of PBMo cells, which were from (B). (D) HMGB1 in the nucleus is transported to the cytoplasm by phosphorylation. RAW 264.7 cells were transfected with a wild type HMGB1-GFP plasmid and cultured for 24 h. And then the cells were treated with 2 μg/mL CHX for 1 h followed by OA treatment for 4 h or by TSA treatment for 2 h and green fluorescent images were observed. Bar: 10 μm.
FIGS. 6A-6E show Mutation of HMGB1 NLS sites alters subcellular distribution of HMGB1. (A) RAW 264.7 cells were transfected with wild-type and each mutant HMGB1-GFP plasmid and immunofluorescent assays were performed 24 h later without any treatment. (B, C, and D) OA (100 nM for 4 h), TSA (10 ng/mL for 2 h), and TNF-α (20 ng/mL for 16 h) were applied 24 h after transfection to observe the effect on HMGB1 nuclear export by phosphorylation, acetylation, or both. […] (E) Secretion of wild-type and each mutant HMGB1-GFP was tested 24 h after transfection by Western blotting. The culture supernatants were concentrated and blotted with anti-GFP. Bar: 10 μm. […]

HMGB1 binding to KAP-α1 = assay: GST-KAP-α1 pull-down of HMGB1 from treated RAW 264.7 cell lysates; conditions: GST-KAP-α1 on glutathione-Sepharose beads; WCLs of treated RAW 264.7 cells
Protocol: FIGS. 4A-4C show the binding of HMGB1 to nuclear import proteins. (A) GST-KAP-α1, -2, -3, -4, -5, -6, and -β1 fusion proteins immobilized on glutathione-Sepharose 4B beads were incubated with WCLs of RAW 264.7 cells overnight at 4° C. Sepharose-bound proteins were separated and the membrane was blotted with anti-HMGB1 and reblotted with anti-GST. WCL was loaded as an HMGB1 control (lane 1), and GST protein was used as a negative control (lane 2). (B) Six His-tagged wild type HMGB1 and boxes A (aa 1-87) and B (aa 88-162) HMGB1 proteins were purified from E. coli BL21 and identified at expected size by Coomassie blue staining. HMGB1 and GST-KAP-α1 was incubated for 2 h at 4° C., and the precipitate was blotted with anti-His for HMGB1 and reblotted with anti-GST for KAP-α1. (C) GST-KAP-α1, immobilized on glutathione-Sepharose beads, was incubated with WCLs of RAW 264.7 cells which were treated with OA, TSA, or TNF-α. The precipitates were blotted with anti-HMGB1 and reblotted with anti-GST.
Two μg of each GST-KAP protein was coupled to glutathione sepharose 4B beads and incubated with 500 μg of WCL from RAW 264.7 cells as a HMGB1 source at 4° C. overnight. […]

HMGB1 phosphorylation = assay: Metabolic [32P] labeling / immunoprecipitation of HMGB1 phosphorylation in RAW 264.7 cells; assay type: cell-based, Murine
Protocol: (§1) (A) RAW 264.7 cells were treated with TNF-α (20 ng/mL for 16 h) or OA (100 nM for 8 h). The nuclear (Nu) and cytoplasmic (Cyt) proteins were separated and blotted with anti-HMGB1. (B) Metabolic [^32P] labeling of HMGB1 in RAW 264.7 cells. RAW 264.7 cells were metabolically labeled with [^32P]orthophosphate for 4 h, and stimulated with OA (100 nM), TNF-α (20 ng/mL) and LPS (100 ng/mL) for 2 or 8 h. WCLs were immunoprecipitated with rabbit anti-HMGB1 from two different vendors of BD PharMingen (BD) and Upstate Biotechnology (UP). The proteins were resolved and transferred to nitrocellulose membrane and visualized by autoradiography. (C) RAW 264.7 cells were treated with TNF-α, and WCLs were immunoprecipitated with anti-pSer, anti-pTyr, and anti-pThr and blotted with anti-HMGB1. WCL was loaded as an HMGB1 control (lane 1). Anti-pAKT was used for a control antibody (lane 3). (D) RAW 264.7 cells were treated with TNF-α for the indicated time. WCLs were immunoprecipitated with anti-HMGB1, blotted with anti-pSer and reblotted with anti-HMGB1. The same culture supernatants were concentrated, separated, and blotted with anti-HMGB1.
To identify the phosphorylated residues of the HMGB1 protein, TNF-α-treated RAW 264.7 cells were lysed with a protease inhibitor cocktail. Cell homogenates were centrifuged at 20,000 g for 15 min and precleared by incubation with protein G-Sepharose (Amersham) at 4° C. for 30 min. The precleared extracts (500 μg) were incubated with rabbit polyclonal anti-pSer, anti-pTyr and anti-pThr (all from Chemicon) and then protein G-Sepharose was added and incubated for 3 h at 4° C. […]
RAW 264.7 cells were cultured in phosphate starved condition of phosphate-free DMEM containing 10% dialyzed FBS (Gibco BRL) for 4 h and further incubated for 4 h by adding 600 μCi of [^32P]orthophosphate (Amersham Pharmacia Biotech) per mL to each dish. […] The concentration of total soluble proteins in the supernatant was quantified using the Bradford reagent (Bio-Rad). […] The gels were dried and the radioactivity was analyzed by autoradiography.

HMGB1 = HMGB1 relocation from nucleus to cytoplasm in RAW 264.7 cells (fraction Western blot, immunofluorescence); assay type: cell-based, Murine; conditions: OA 100 nM for 8 h, TNF-α 20 ng/mL for 16 h
Protocol: as §1, with “(D) RAW 264.7 cells were treated with TNF-α for the indicated time. WCLs were immunoprecipitated with anti-HMGB1, blotted with anti-pSer and reblotted with anti-HMGB1. The same culture supernatants were concentrated, separated, and blotted with anti-HMGB1.” left out
To analyze the secretion of HMGB1 in the supernatants, culture media were replaced with serum-free OPTI-MEM (Gibco BRL) medium and concentrated with Amicon Centricon filtration (Millipore) after removing cell debris, and Western blot analysis was performed. […] The cells were lysed using 1% Nonidet P-40 buffer containing a protease inhibitor cocktail (Sigma), and the protein concentrations were measured by Bradford assay (Biorad) for the analysis of whole cell lysates (WCLs). […]

| Molecule | HMGB1-GFP (wild-type and mutants) relocation 24 h after transfection (HMGB1-GFP) | binding of HMGB1 from treated cell lysate to KAP-α1 (HMGB1 binding to KAP-α1) | level of phosphorylated (p-) HMGB1 (IP anti-HMGB1, blot anti-pSer) (HMGB1 phosphorylation; RAW 264.7 cells treated with TNF-α for the indicated time) | phosphorylated amino acid residue of HMGB1 (IP anti-pSer, anti-pTyr, anti-pThr) (HMGB1 phosphorylation; RAW 264.7 cells, 20 ng/mL TNF-α for 16 h) | HMGB1 phosphorylation ([32P]orthophosphate labeling, autoradiography) (HMGB1 phosphorylation; RAW 264.7 cells, 100 nM OA, 20 ng/mL TNF-α, 100 ng/mL LPS, 2 or 8 h) | HMGB1 in the cytoplasm (nuclear/cytoplasmic fractions, Western blot) (HMGB1) |
| --- | --- | --- | --- | --- | --- | --- |
| CC(/C=C/C(=O)NO)=C\[C@@H](C)C(=O)c1ccc(N(C)C)cc1 [TSA, trichostatin A] | the wild-type and all mutant HMGB1-GFPs showed cytoplasmic relocation | no binding to KAP-α1 | – | – | – | – |
| TNF-α | The same results were observed | – | increased by TNF-α in a time-dependent manner | Only serine residues of HMGB1 were phosphorylated | phosphorylated | translocation of nuclear HMGB1 to the cytoplasm |
